{"source": "PubChem BioAssay (NCI)", "note": "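These data come from cells grown in 96-well plates and exposed to compound for 48 hours at five concentrations. TGI denotes the concentration required for complete inhibition of growth.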"}
{"system": "M14 melanoma", "assay": "inhibition of tumour cell growth, NCI panel, 48 h", "units": {"TGI": "µM"}}
{"compound": "C1CSC(Sc2nc(SC3=NCCS3)nc(SC3=NCCS3)n2)=N1", "TGI": "> 100"}
{"compound": "CC(=O)NCCC1CNc2ccccc21", "note": "(stereo unspecified)", "TGI": "> 100"}
{"compound": "Cn1c(-c2ccccc2)cc(-c2ccsc2)c1-c1ccsc1", "TGI": "> 100"}
{"compound": "CN(C)CCCNC(=O)c1cc2/c(=C\\c3ccc(N(C)C)cc3)c3ccccc3n2[n+]1C", "TGI": 39}
{"compound": "CC(C)(C)c1ccc(C(C)(C)C)c(N2C(=O)[C@@H]3[C@@H]4C=C[C@@H](C4)[C@]3(C)C2=O)c1", "TGI": 51.3}
{"system": "LOX IMVI melanoma", "assay": "inhibition of tumour cell growth, NCI panel, 48 h", "units": {"TGI": "µM"}}
{"compound": "C1CSC(Sc2nc(SC3=NCCS3)nc(SC3=NCCS3)n2)=N1", "TGI": "> 100"}
{"compound": "CC(=O)NCCC1CNc2ccccc21", "note": "(stereo unspecified)", "TGI": "> 100"}
{"compound": "Cn1c(-c2ccccc2)cc(-c2ccsc2)c1-c1ccsc1", "TGI": "> 100"}
{"compound": "CN(C)CCCNC(=O)c1cc2/c(=C\\c3ccc(N(C)C)cc3)c3ccccc3n2[n+]1C", "TGI": "> 100"}
{"compound": "CC(C)(C)c1ccc(C(C)(C)C)c(N2C(=O)[C@@H]3[C@@H]4C=C[C@@H](C4)[C@]3(C)C2=O)c1", "TGI": 26.8}
{"system": "MCF7 breast", "assay": "inhibition of tumour cell growth, NCI panel, 48 h", "units": {"TGI": "µM"}}
{"compound": "C1CSC(Sc2nc(SC3=NCCS3)nc(SC3=NCCS3)n2)=N1", "TGI": "> 100"}
{"compound": "CC(=O)NCCC1CNc2ccccc21", "note": "(stereo unspecified)", "TGI": "> 100"}
{"compound": "Cn1c(-c2ccccc2)cc(-c2ccsc2)c1-c1ccsc1", "TGI": "> 100"}
{"compound": "CN(C)CCCNC(=O)c1cc2/c(=C\\c3ccc(N(C)C)cc3)c3ccccc3n2[n+]1C", "TGI": 50.7}
{"compound": "CC(C)(C)c1ccc(C(C)(C)C)c(N2C(=O)[C@@H]3[C@@H]4C=C[C@@H](C4)[C@]3(C)C2=O)c1", "TGI": "> 100"}
{"system": "SF-295 CNS", "assay": "inhibition of tumour cell growth, NCI panel, 48 h", "units": {"TGI": "µM"}}
{"compound": "C1CSC(Sc2nc(SC3=NCCS3)nc(SC3=NCCS3)n2)=N1", "TGI": "> 100"}
{"compound": "CC(=O)NCCC1CNc2ccccc21", "note": "(stereo unspecified)", "TGI": "> 100"}
{"compound": "Cn1c(-c2ccccc2)cc(-c2ccsc2)c1-c1ccsc1", "TGI": "> 100"}
{"compound": "CN(C)CCCNC(=O)c1cc2/c(=C\\c3ccc(N(C)C)cc3)c3ccccc3n2[n+]1C", "TGI": "> 100"}
{"compound": "CC(C)(C)c1ccc(C(C)(C)C)c(N2C(=O)[C@@H]3[C@@H]4C=C[C@@H](C4)[C@]3(C)C2=O)c1", "TGI": "> 100"}
{"system": "NCI-H522 lung", "assay": "inhibition of tumour cell growth, NCI panel, 48 h", "units": {"TGI": "µM"}}
{"compound": "C1CSC(Sc2nc(SC3=NCCS3)nc(SC3=NCCS3)n2)=N1", "TGI": "> 100"}
{"compound": "CC(=O)NCCC1CNc2ccccc21", "note": "(stereo unspecified)", "TGI": "> 100"}
{"compound": "CN(C)CCCNC(=O)c1cc2/c(=C\\c3ccc(N(C)C)cc3)c3ccccc3n2[n+]1C", "TGI": 10.9}
{"compound": "CC(C)(C)c1ccc(C(C)(C)C)c(N2C(=O)[C@@H]3[C@@H]4C=C[C@@H](C4)[C@]3(C)C2=O)c1", "TGI": 47.4}
{"system": "SK-OV-3 ovarian", "assay": "inhibition of tumour cell growth, NCI panel, 48 h", "units": {"TGI": "µM"}}
{"compound": "C1CSC(Sc2nc(SC3=NCCS3)nc(SC3=NCCS3)n2)=N1", "TGI": "> 100"}
{"compound": "CC(=O)NCCC1CNc2ccccc21", "note": "(stereo unspecified)", "TGI": "> 100"}
{"compound": "Cn1c(-c2ccccc2)cc(-c2ccsc2)c1-c1ccsc1", "TGI": "> 100"}
{"compound": "CN(C)CCCNC(=O)c1cc2/c(=C\\c3ccc(N(C)C)cc3)c3ccccc3n2[n+]1C", "TGI": "> 100"}
{"compound": "CC(C)(C)c1ccc(C(C)(C)C)c(N2C(=O)[C@@H]3[C@@H]4C=C[C@@H](C4)[C@]3(C)C2=O)c1", "TGI": "> 100"}
{"system": "HOP-92 NSCLC", "assay": "inhibition of tumour cell growth, NCI panel, 48 h", "units": {"TGI": "µM"}}
{"compound": "C1CSC(Sc2nc(SC3=NCCS3)nc(SC3=NCCS3)n2)=N1", "TGI": "> 100"}
{"compound": "CC(=O)NCCC1CNc2ccccc21", "note": "(stereo unspecified)", "TGI": "> 100"}
{"compound": "Cn1c(-c2ccccc2)cc(-c2ccsc2)c1-c1ccsc1", "TGI": "> 100"}
{"compound": "CN(C)CCCNC(=O)c1cc2/c(=C\\c3ccc(N(C)C)cc3)c3ccccc3n2[n+]1C", "TGI": 56.4}
{"compound": "CC(C)(C)c1ccc(C(C)(C)C)c(N2C(=O)[C@@H]3[C@@H]4C=C[C@@H](C4)[C@]3(C)C2=O)c1", "TGI": 9.64}
{"system": "RXF 393 renal", "assay": "inhibition of tumour cell growth, NCI panel, 48 h", "units": {"TGI": "µM"}}
{"compound": "C1CSC(Sc2nc(SC3=NCCS3)nc(SC3=NCCS3)n2)=N1", "TGI": "> 100"}
{"compound": "CC(=O)NCCC1CNc2ccccc21", "note": "(stereo unspecified)", "TGI": "> 100"}
{"compound": "Cn1c(-c2ccccc2)cc(-c2ccsc2)c1-c1ccsc1", "TGI": "> 100"}
{"compound": "CN(C)CCCNC(=O)c1cc2/c(=C\\c3ccc(N(C)C)cc3)c3ccccc3n2[n+]1C", "TGI": "> 100"}
{"compound": "CC(C)(C)c1ccc(C(C)(C)C)c(N2C(=O)[C@@H]3[C@@H]4C=C[C@@H](C4)[C@]3(C)C2=O)c1", "TGI": 32.2}
{"system": "A549 NSCLC", "assay": "inhibition of tumour cell growth, NCI panel, 48 h", "units": {"TGI": "µM"}}
{"compound": "C1CSC(Sc2nc(SC3=NCCS3)nc(SC3=NCCS3)n2)=N1", "TGI": "> 100"}
{"compound": "CC(=O)NCCC1CNc2ccccc21", "note": "(stereo unspecified)", "TGI": "> 100"}
{"compound": "Cn1c(-c2ccccc2)cc(-c2ccsc2)c1-c1ccsc1", "TGI": "> 100"}
{"compound": "CN(C)CCCNC(=O)c1cc2/c(=C\\c3ccc(N(C)C)cc3)c3ccccc3n2[n+]1C", "TGI": "> 100"}
{"compound": "CC(C)(C)c1ccc(C(C)(C)C)c(N2C(=O)[C@@H]3[C@@H]4C=C[C@@H](C4)[C@]3(C)C2=O)c1", "TGI": "> 100"}
{"system": "RPMI-8226 leukemia", "assay": "inhibition of tumour cell growth, NCI panel, 48 h", "units": {"TGI": "µM"}}
{"compound": "C1CSC(Sc2nc(SC3=NCCS3)nc(SC3=NCCS3)n2)=N1", "TGI": "> 100"}
{"compound": "CC(=O)NCCC1CNc2ccccc21", "note": "(stereo unspecified)", "TGI": "> 100"}
{"compound": "Cn1c(-c2ccccc2)cc(-c2ccsc2)c1-c1ccsc1", "TGI": "> 100"}
{"compound": "CN(C)CCCNC(=O)c1cc2/c(=C\\c3ccc(N(C)C)cc3)c3ccccc3n2[n+]1C", "TGI": 53.6}
{"compound": "CC(C)(C)c1ccc(C(C)(C)C)c(N2C(=O)[C@@H]3[C@@H]4C=C[C@@H](C4)[C@]3(C)C2=O)c1", "TGI": 49.1}
{"system": "OVCAR-3 ovarian", "assay": "inhibition of tumour cell growth, NCI panel, 48 h", "units": {"TGI": "µM"}}
{"compound": "C1CSC(Sc2nc(SC3=NCCS3)nc(SC3=NCCS3)n2)=N1", "TGI": "> 100"}
{"compound": "CC(=O)NCCC1CNc2ccccc21", "note": "(stereo unspecified)", "TGI": "> 100"}
{"compound": "Cn1c(-c2ccccc2)cc(-c2ccsc2)c1-c1ccsc1", "TGI": "> 100"}
{"compound": "CN(C)CCCNC(=O)c1cc2/c(=C\\c3ccc(N(C)C)cc3)c3ccccc3n2[n+]1C", "TGI": 52.2}
{"compound": "CC(C)(C)c1ccc(C(C)(C)C)c(N2C(=O)[C@@H]3[C@@H]4C=C[C@@H](C4)[C@]3(C)C2=O)c1", "TGI": 53}
{"system": "SNB-19 CNS", "assay": "inhibition of tumour cell growth, NCI panel, 48 h", "units": {"TGI": "µM"}}
{"compound": "C1CSC(Sc2nc(SC3=NCCS3)nc(SC3=NCCS3)n2)=N1", "TGI": "> 100"}
{"compound": "CC(=O)NCCC1CNc2ccccc21", "note": "(stereo unspecified)", "TGI": "> 100"}
{"compound": "Cn1c(-c2ccccc2)cc(-c2ccsc2)c1-c1ccsc1", "TGI": "> 100"}
{"compound": "CN(C)CCCNC(=O)c1cc2/c(=C\\c3ccc(N(C)C)cc3)c3ccccc3n2[n+]1C", "TGI": "> 100"}
{"compound": "CC(C)(C)c1ccc(C(C)(C)C)c(N2C(=O)[C@@H]3[C@@H]4C=C[C@@H](C4)[C@]3(C)C2=O)c1", "TGI": "> 100"}
{"system": "SF-268 CNS", "assay": "inhibition of tumour cell growth, NCI panel, 48 h", "units": {"TGI": "µM"}}
{"compound": "C1CSC(Sc2nc(SC3=NCCS3)nc(SC3=NCCS3)n2)=N1", "TGI": "> 100"}
{"compound": "CC(=O)NCCC1CNc2ccccc21", "note": "(stereo unspecified)", "TGI": "> 100"}
{"compound": "Cn1c(-c2ccccc2)cc(-c2ccsc2)c1-c1ccsc1", "TGI": "> 100"}
{"compound": "CN(C)CCCNC(=O)c1cc2/c(=C\\c3ccc(N(C)C)cc3)c3ccccc3n2[n+]1C", "TGI": 90.9}
{"compound": "CC(C)(C)c1ccc(C(C)(C)C)c(N2C(=O)[C@@H]3[C@@H]4C=C[C@@H](C4)[C@]3(C)C2=O)c1", "TGI": 74}
{"system": "MALME-3M melanoma", "assay": "inhibition of tumour cell growth, NCI panel, 48 h", "units": {"TGI": "µM"}}
{"compound": "C1CSC(Sc2nc(SC3=NCCS3)nc(SC3=NCCS3)n2)=N1", "TGI": "> 100"}
{"compound": "CC(=O)NCCC1CNc2ccccc21", "note": "(stereo unspecified)", "TGI": "> 100"}
{"compound": "CN(C)CCCNC(=O)c1cc2/c(=C\\c3ccc(N(C)C)cc3)c3ccccc3n2[n+]1C", "TGI": 38.4}
{"compound": "CC(C)(C)c1ccc(C(C)(C)C)c(N2C(=O)[C@@H]3[C@@H]4C=C[C@@H](C4)[C@]3(C)C2=O)c1", "TGI": 53}
{"system": "ACHN renal", "assay": "inhibition of tumour cell growth, NCI panel, 48 h", "units": {"TGI": "µM"}}
{"compound": "C1CSC(Sc2nc(SC3=NCCS3)nc(SC3=NCCS3)n2)=N1", "TGI": "> 100"}
{"compound": "CC(=O)NCCC1CNc2ccccc21", "note": "(stereo unspecified)", "TGI": "> 100"}
{"compound": "Cn1c(-c2ccccc2)cc(-c2ccsc2)c1-c1ccsc1", "TGI": "> 100"}
